The results in this text go back to ChEMBL document CHEMBL1150522, “Preparation and antifungal activity of fusacandin analogs: C-6 sidechain esters” (1996).

In brackets after ≈: the same amount, converted by molar mass. Bounds are passed on as bounds.

Assay type in all cases: functional
Test [1] relates to Candida albicans. The experiment in a line: Minimum inhibitory concentration against Candida albicans (CCH 442) in the presence of serum.
Test [2] has as its system Candida albicans. The test can be described thus: Minimum inhibitory concentration against Candida albicans (ATCC 10231) in the absence of serum.
Test [3] relates to Candida albicans. The test can be described thus: Minimum inhibitory concentration against Candida albicans (ATCC 10231) in the presence of serum.
For test [4], the system named is Candida albicans. The test can be described thus: Minimum inhibitory concentration against Candida albicans (ATCC 38247) in the absence of serum.
The test system of test [5] is Candida albicans. The experiment in a line: Minimum inhibitory concentration against Candida albicans (ATCC 38247) in the presence of serum.
The subject of test [6] is Candida albicans. The test can be described thus: Minimum inhibitory concentration against Candida albicans (ATCC 62376) in the absence of serum.
For test [7], the system named is Candida albicans. The test can be described thus: Minimum inhibitory concentration against Candida albicans (ATCC 62376) in the presence of serum.
For test [8], the system named is Candida albicans. The test can be described thus: Minimum inhibitory concentration against Candida albicans (CCH 442) in the absence of serum.
Test [9] concerns Candida albicans. The test can be described thus: Minimum inhibitory concentration against Candida albicans (579a) in the absence of serum.
In test [10] the test system is Candida albicans. The test can be described thus: Minimum inhibitory concentration against Candida albicans (579a) in the presence of serum.

Broadly, the MIC is the smallest concentration in the dilution series that meets the test's criterion for growth inhibition. On to `CCCCC/C=C/C=C/[C@@H](O)C/C=C/C=C/C(=O)O[C@@H]1[C@@H](O)[C@H](c2c(O)cc(O)cc2CO)O[C@H](CO)[C@H]1O[C@@H]1O[C@H](COC(=O)c2ccc(-c3ccc(OCCC)cc3)cc2)[C@H](O)[C@H](O)[C@H]1O[C@@H]1O[C@H](CO)[C@H](O)[C@H](O)[C@H]1O`, for which the MIC in the test on Candida albicans [1] is 0.78 µg/mL; against Candida albicans [2], 12.5 µg/mL (≈ 11.2 µM); in the test with Candida albicans [3], 0.78 µg/mL; against Candida albicans [4] it was 25 µg/mL (≈ 22.5 µM); in the test on Candida albicans [5] it was 0.78 µg/mL; against Candida albicans [6], 12.5 µg/mL (≈ 11.2 µM). The minimal inhibitory concentration (MIC) in the test on Candida albicans [7] came to 0.78 µg/mL; in the test with Candida albicans [8], 6.25 µg/mL (≈ 5.62 µM); with Candida albicans [9], 25 µg/mL (≈ 22.5 µM); in the test on Candida albicans [10], 0.78 µg/mL.

Consider `CCCCC/C=C/C=C/[C@@H](O)C/C=C/C=C/C(=O)O[C@@H]1[C@@H](O)[C@H](c2c(O)cc(O)cc2CO)O[C@H](CO)[C@H]1O[C@@H]1O[C@H](COC(=O)c2ccc(-c3ccc(O)cc3)cc2)[C@H](O)[C@H](O)[C@H]1O[C@@H]1O[C@H](CO)[C@H](O)[C@H](O)[C@H]1O`, for which the MIC was 6.25 µg/mL with Candida albicans [1]; over 100 µg/mL with Candida albicans [2]; 12.5 µg/mL in the test on Candida albicans [3]; over 100 µg/mL against Candida albicans [4]; 6.25 µg/mL in the test with Candida albicans [5]; over 100 µg/mL with Candida albicans [6]. For the same compound, the minimum inhibitory concentration (MIC) was 12.5 µg/mL in the test on Candida albicans [7], over 100 µg/mL with Candida albicans [8], over 100 µg/mL in the test on Candida albicans [9] and 6.25 µg/mL in the test on Candida albicans [10].

Take `CCCCC/C=C/C=C/[C@@H](O)C/C=C/C=C/C(=O)O[C@@H]1[C@@H](O)[C@H](c2c(O)cc(O)cc2CO)O[C@H](CO)[C@H]1O[C@@H]1O[C@H](COC(=O)/C=C/C=C/CCCCCC)[C@H](O)[C@H](O)[C@H]1O[C@@H]1O[C@H](CO)[C@H](O)[C@H](O)[C@H]1O`: the MIC with Candida albicans [1] is 1.56 µg/mL; against Candida albicans [2], over 100 µg/mL; with Candida albicans [3], 1.56 µg/mL; against Candida albicans [4] it was over 100 µg/mL; in the test on Candida albicans [5] it was 1.56 µg/mL; against Candida albicans [6] it was over 100 µg/mL. Also, the MIC in the test with Candida albicans [7] is 3.12 µg/mL; against Candida albicans [8] it was over 100 µg/mL; in the test with Candida albicans [9] it was over 100 µg/mL; in the test with Candida albicans [10], 0.78 µg/mL.

With `CCC(O)/C=C/C=C\C=C\C(=O)OC[C@H]1O[C@@H](O[C@H]2[C@H](OC(=O)/C=C/C=C/C[C@H](O)/C(C)=C/C=C/CCC(C)CC)[C@@H](O)[C@@]3(OCc4cc(O)cc(O)c43)O[C@@H]2CO)[C@H](O)[C@@H](O)[C@H]1O` (stereo not given in full), the minimal inhibitory concentration (MIC) is 0.78 µg/mL in the test on Candida albicans [1]; over 100 µg/mL with Candida albicans [2]; 0.2 µg/mL in the test with Candida albicans [3]; over 100 µg/mL with Candida albicans [4]; 0.39 µg/mL with Candida albicans [5]; over 100 µg/mL in the test with Candida albicans [6]. Besides, the MIC was 0.39 µg/mL in the test on Candida albicans [7], over 100 µg/mL in the test with Candida albicans [8], over 100 µg/mL in the test on Candida albicans [9] and 0.78 µg/mL in the test with Candida albicans [10].

Consider `CCCCC/C=C/C=C/[C@@H](O)C/C=C/C=C/C(=O)O[C@@H]1[C@@H](O)[C@H](c2c(O)cc(O)cc2CO)O[C@H](CO)[C@H]1O[C@@H]1O[C@H](COC(=O)c2ccc(-c3ccccc3OC)cc2)[C@H](O)[C@H](O)[C@H]1O[C@@H]1O[C@H](CO)[C@H](O)[C@H](O)[C@H]1O`, for which the minimal inhibitory concentration (MIC) in the test with Candida albicans [1] is 6.25 µg/mL; against Candida albicans [2], 50 µg/mL (≈ 46.2 µM); in the test with Candida albicans [3], 6.25 µg/mL; against Candida albicans [4], 100 µg/mL (≈ 92.3 µM); with Candida albicans [5], 6.25 µg/mL; with Candida albicans [6], 50 µg/mL (≈ 46.2 µM). Besides, the MIC in the test on Candida albicans [7] came to 1.56 µg/mL; in the test on Candida albicans [8], 50 µg/mL (≈ 46.2 µM); in the test with Candida albicans [9] it was 50 µg/mL (≈ 46.2 µM); in the test with Candida albicans [10] it was 1.56 µg/mL.

For `CCCCC/C=C/C=C/[C@@H](O)C/C=C/C=C/C(=O)O[C@@H]1[C@@H](O)[C@H](c2c(O)cc(O)cc2CO)O[C@H](CO)[C@H]1O[C@@H]1O[C@H](COC(=O)c2ccc3c(c2)-c2ccccc2-3)[C@H](O)[C@H](O)[C@H]1O[C@@H]1O[C@H](CO)[C@H](O)[C@H](O)[C@H]1O`, the MIC in the test with Candida albicans [1] was 0.39 µg/mL; with Candida albicans [2] it was 25 µg/mL (≈ 23.8 µM); in the test on Candida albicans [3] it was 1.56 µg/mL; in the test with Candida albicans [4] it was 25 µg/mL (≈ 23.8 µM); in the test with Candida albicans [5] it was 0.78 µg/mL; in the test with Candida albicans [6], 25 µg/mL (≈ 23.8 µM). For the same compound, the minimal inhibitory concentration (MIC) in the test on Candida albicans [7] came out at 1.56 µg/mL; against Candida albicans [8] it was 25 µg/mL (≈ 23.8 µM); against Candida albicans [9] it was 25 µg/mL (≈ 23.8 µM); in the test with Candida albicans [10], 0.39 µg/mL.

Take `CCCCC/C=C/C=C/[C@@H](O)C/C=C/C=C/C(=O)O[C@@H]1[C@@H](O)[C@H](c2c(O)cc(O)cc2CO)O[C@H](CO)[C@H]1O[C@@H]1O[C@H](COC(=O)c2ccc3ccccc3c2)[C@H](O)[C@H](O)[C@H]1O[C@@H]1O[C@H](CO)[C@H](O)[C@H](O)[C@H]1O`: the minimum inhibitory concentration (MIC) in the test on Candida albicans [1] is 1.56 µg/mL; against Candida albicans [2] it was 50 µg/mL (≈ 48.7 µM); in the test with Candida albicans [3], 3.12 µg/mL; in the test on Candida albicans [4] it was over 100 µg/mL; in the test with Candida albicans [5], 0.78 µg/mL; with Candida albicans [6] it was 25 µg/mL (≈ 24.3 µM). The minimum inhibitory concentration (MIC) with Candida albicans [7] is 3.12 µg/mL; with Candida albicans [8], 50 µg/mL (≈ 48.7 µM); in the test with Candida albicans [9], 50 µg/mL (≈ 48.7 µM); in the test with Candida albicans [10], 0.78 µg/mL.

Take `CCCCC/C=C/C=C/[C@@H](O)C/C=C/C=C/C(=O)O[C@@H]1[C@@H](O)[C@H](c2c(O)cc(O)cc2CO)O[C@H](CO)[C@H]1O[C@@H]1O[C@H](COC(=O)c2ccc(-c3ccc(OCCCCCCCC)cc3)cc2)[C@H](O)[C@H](O)[C@H]1O[C@@H]1O[C@H](CO)[C@H](O)[C@H](O)[C@H]1O`: the minimum inhibitory concentration (MIC) in the test on Candida albicans [1] was 25 µg/mL; against Candida albicans [2], 100 µg/mL (≈ 84.7 µM); in the test on Candida albicans [3], 25 µg/mL; against Candida albicans [4] it was over 100 µg/mL; in the test with Candida albicans [5], 50 µg/mL; against Candida albicans [6], 100 µg/mL (≈ 84.7 µM). Further, the minimal inhibitory concentration (MIC) came to 12.5 µg/mL with Candida albicans [7], 100 µg/mL (≈ 84.7 µM) with Candida albicans [8], 100 µg/mL (≈ 84.7 µM) in the test on Candida albicans [9] and 25 µg/mL with Candida albicans [10].
